# Laboratory results published in paper PMC5936838, “Structural implications of hERG K^+ channel block by a high-affinity minimally structured blocker” (The Journal of Biological Chemistry, 2018).
# “And” between values parts separate entries of the source, which are not always exact repeats. Identical values can stand only once. “Also recorded” adds a separate entry of the source.
# Assays:
# S620T hERG = target: T1, S620T hERG (Homo sapiens, UniProt Q12809, S620T); experiment: Whole-cell patch-clamp recording of IhERG, attenuated-inactivation mutant S620T; assay type: cell-based
# T1 construct: expressed in transfected cells; host or cells: HEK293
# Source text: (§1) A HEK293 cell line stably expressing WT hERG channels was kindly donated by Prof. Craig January ([51]). The pore helix (T623A and S624A) and S6 helix (F656A) alanine mutants, attenuated-inactivation mutants (N588K and S620T), and S5 mutant F557L were all generated and used as described previously ([3], [18], [41], [52]). The HEK293 cell line stably expressing the hERG S6 helix mutant Y652A was used in this study as described previously ([52]).
# (§2) HEK293 cells stably or transiently expressing hERG constructs were maintained as described previously ([18], [19], [52]). Cells were plated in 40-mm Petri dishes at least 48 h before transfection and incubated at 37 °C with 5% CO2. Cells were transfected either with Lipofectamine^TM 2000 (Invitrogen) or Lipofectamine LTX (Invitrogen) following the manufacturer's instructions. The amount of hERG construct DNA that was transfected varied between 0.1 and 1.0 μg depending on the level of functional expression. 0.15 μg of CD8 was cotransfected as a transfection marker, and successfully transfected cells were identified using Dynabeads® (Invitrogen). Cells were plated on sterilized glass shards in 40-mm Petri dishes and incubated at 37 °C (5% CO2) at least 24 h before electrophysiological recording; this was to allow time for cell recovery and hERG construct expression. […]
# WT hERG [1] = target: T2, WT hERG (Homo sapiens, UniProt Q12809); experiment: Whole-cell patch-clamp recording of IhERG, WT hERG in HEK293 cells at 37 °C; assay type: cell-based
# T2 construct: expressed in transfected cells
# Source text: as §1
# (§3) HEK293 cells stably or transiently expressing hERG constructs were maintained as described previously ([18], [19], [52]). Cells were plated in 40-mm Petri dishes at least 48 h before transfection and incubated at 37 °C with 5% CO2. Cells were transfected either with Lipofectamine^TM 2000 (Invitrogen) or Lipofectamine LTX (Invitrogen) following the manufacturer's instructions. The amount of hERG construct DNA that was transfected varied between 0.1 and 1.0 μg depending on the level of functional expression. 0.15 μg of CD8 was cotransfected as a transfection marker, and successfully transfected cells were identified using Dynabeads® (Invitrogen). Cells were plated on sterilized glass shards in 40-mm Petri dishes and incubated at 37 °C (5% CO2) at least 24 h before electrophysiological recording; this was to allow time for cell recovery and hERG construct expression.
# For IhERG recordings, glass shards containing plated cells were placed in a recording chamber mounted on an inverted microscope (Nikon Diaphot). The cells were superfused continuously with Tyrode's solution containing 140 mM NaCl, 4 mM KCl, 2.5 mM CaCl2, 1 mM MgCl2, 10 mM glucose, 5 mM HEPES (titrated to pH 7.4 with NaOH). As described previously ([18], [19]), a modified “high-K^+” version of this solution (containing 94 mM KCl and 50 mM NaCl) was used to obtain recordable currents from comparatively poorly expressed hERG mutants (T623A and F656A). Patch pipettes (Schott number 8250 glass, A-M Systems Inc.) were pulled (Narishige, PP 830) and polished (Narishige, MF 83) to final resistance values between 2 and 4 megaohms. The patch pipettes were filled with intracellular solutio, containing 130 mM KCl, 1 mM MgCl2, 5 mM EGTA, 5 mM MgATP, and 10 mM HEPES (titrated to pH 7.2 with KOH). Pipette resistance compensation was between 70 and 80%. Cavalli-2 ([30]), which was synthesized by Ascent Scientific (Abcam Ltd.), was dissolved in DMSO to produce 100 μM, 1 mM, and 10 mM stock solutions. Stock solutions were diluted either in standard or high-K^+ Tyrode's solution as appropriate to obtain final concentrations stated under “Results.” Solutions were preheated to 37 ± 1 °C and applied to single cells using a homemade, multibarreled superfusion system, enabling rapid superfusate exchange (<1 s) ([53]). Thus, measurements of IhERG were made at 37 ± 1 °C as described previously ([18], [19], [52], [54], [55]).
# All IhERG recordings were made using an Axopatch 200B amplifier (Axon Instruments, now Molecular Devices) and a CV203BU head stage. Data were acquired using a Digidata 1320 interface (Axon Instruments, now Molecular Devices). Data digitization rates were between 10 and 25 kHz during all voltage protocols, and an appropriate bandwidth between 2 and 10 kHz was set on the amplifier. For WT hERG and most of the mutant channels studied, activating voltage commands to +20 mV were used with tail currents observed at either […] (for most mutants) or −120 mV (for T623A and F656A) ([18][–][20], [33]). The level of block of WT and mutant IhERG by Cavalli-2 was attained by repetitive protocol application for 5 min, and fractional inhibition of IhERG tails was measured. […]
# hERG = system: hERG; design: method as in earlier work; conditions: HEK cells at room temperature; ref 30 (Cavalli et al.); cited from earlier work
# T623A hERG = target: T3, T623A hERG (Homo sapiens, UniProt Q12809, T623A); experiment: Whole-cell patch-clamp recording of IhERG, pore helix mutant T623A; assay type: cell-based
# T3 construct: expressed in transfected cells; host or cells: HEK293
# Source text: as §1, §2
# F557L hERG = target: T4, F557L hERG (Homo sapiens, UniProt Q12809, F557L); experiment: Whole-cell patch-clamp recording of IhERG, S5 mutant F557L; assay type: cell-based
# T4 construct: expressed in transfected cells; host or cells: HEK293
# Source text: as §1, §3
# The F557L hERG mutation was generated using the Quik Change® site-directed mutagenesis kit (Stratagene, La Jolla, CA). In brief, a pair of complementary oligonucleotide primers containing the mutation (forward primer sequence, 5′[…]-3′; reverse primer sequence, 5′[…]-3′; synthesized by Sigma-Genosys, Haverhill, UK) was used in a PCR (95 °C for 1 min, 60 °C for 1 min, and 68 °C for 16 min for 18 cycles) by using hERG in a modified pcDNA3.0 vector as a DNA template. A DpnI digest of the PCR mixture was then performed for 1 h at 37 °C. Competent DH5α Escherichia coli (Invitrogen) were transformed using standard procedures. The mutation was confirmed by sequencing of the entire ORF (Eurofins MWG Operon, Ebersberg, Germany). […]
# F656A hERG = target: T5, F656A hERG (Homo sapiens, UniProt Q12809, F656A); experiment: Whole-cell patch-clamp recording of IhERG, S6 helix mutant F656A; assay type: cell-based
# T5 construct: expressed in transfected cells; host or cells: HEK293
# Source text: as §1, §3
# (§4) For IhERG recordings, glass shards containing plated cells were placed in a recording chamber mounted on an inverted microscope (Nikon Diaphot). The cells were superfused continuously with Tyrode's solution containing 140 mM NaCl, 4 mM KCl, 2.5 mM CaCl2, 1 mM MgCl2, 10 mM glucose, 5 mM HEPES (titrated to pH 7.4 with NaOH). As described previously ([18], [19]), a modified “high-K^+” version of this solution (containing 94 mM KCl and 50 mM NaCl) was used to obtain recordable currents from comparatively poorly expressed hERG mutants (T623A and F656A). Patch pipettes (Schott number 8250 glass, A-M Systems Inc.) were pulled (Narishige, PP 830) and polished (Narishige, MF 83) to final resistance values between 2 and 4 megaohms. […]
# WT hERG [2] = target: T2, WT hERG; experiment: Whole-cell patch-clamp recording of IhERG, WT hERG in HEK293 cells at 37 °C; assay type: cell-based; remark: listed apart in the source
# S624A hERG = target: T6, S624A hERG (Homo sapiens, UniProt Q12809, S624A); experiment: Whole-cell patch-clamp recording of IhERG, pore helix mutant S624A; assay type: cell-based
# T6 construct: expressed in transfected cells; host or cells: HEK293
# Source text: as §1, §2
# N588K hERG = target: T7, N588K hERG (Homo sapiens, UniProt Q12809, N588K); experiment: Whole-cell patch-clamp recording of IhERG, attenuated-inactivation mutant N588K; assay type: cell-based
# T7 construct: expressed in transfected cells; host or cells: HEK293
# Source text: as §1, §3, §4
# Y652A hERG = target: T8, Y652A hERG (Homo sapiens, UniProt Q12809, Y652A); experiment: Whole-cell patch-clamp recording of IhERG, S6 helix mutant Y652A; assay type: cell-based
# T8 construct: expressed in transfected cells
# Source text: as §1, §3, §4
# T1 sequence (Q12809 whole entry S620T): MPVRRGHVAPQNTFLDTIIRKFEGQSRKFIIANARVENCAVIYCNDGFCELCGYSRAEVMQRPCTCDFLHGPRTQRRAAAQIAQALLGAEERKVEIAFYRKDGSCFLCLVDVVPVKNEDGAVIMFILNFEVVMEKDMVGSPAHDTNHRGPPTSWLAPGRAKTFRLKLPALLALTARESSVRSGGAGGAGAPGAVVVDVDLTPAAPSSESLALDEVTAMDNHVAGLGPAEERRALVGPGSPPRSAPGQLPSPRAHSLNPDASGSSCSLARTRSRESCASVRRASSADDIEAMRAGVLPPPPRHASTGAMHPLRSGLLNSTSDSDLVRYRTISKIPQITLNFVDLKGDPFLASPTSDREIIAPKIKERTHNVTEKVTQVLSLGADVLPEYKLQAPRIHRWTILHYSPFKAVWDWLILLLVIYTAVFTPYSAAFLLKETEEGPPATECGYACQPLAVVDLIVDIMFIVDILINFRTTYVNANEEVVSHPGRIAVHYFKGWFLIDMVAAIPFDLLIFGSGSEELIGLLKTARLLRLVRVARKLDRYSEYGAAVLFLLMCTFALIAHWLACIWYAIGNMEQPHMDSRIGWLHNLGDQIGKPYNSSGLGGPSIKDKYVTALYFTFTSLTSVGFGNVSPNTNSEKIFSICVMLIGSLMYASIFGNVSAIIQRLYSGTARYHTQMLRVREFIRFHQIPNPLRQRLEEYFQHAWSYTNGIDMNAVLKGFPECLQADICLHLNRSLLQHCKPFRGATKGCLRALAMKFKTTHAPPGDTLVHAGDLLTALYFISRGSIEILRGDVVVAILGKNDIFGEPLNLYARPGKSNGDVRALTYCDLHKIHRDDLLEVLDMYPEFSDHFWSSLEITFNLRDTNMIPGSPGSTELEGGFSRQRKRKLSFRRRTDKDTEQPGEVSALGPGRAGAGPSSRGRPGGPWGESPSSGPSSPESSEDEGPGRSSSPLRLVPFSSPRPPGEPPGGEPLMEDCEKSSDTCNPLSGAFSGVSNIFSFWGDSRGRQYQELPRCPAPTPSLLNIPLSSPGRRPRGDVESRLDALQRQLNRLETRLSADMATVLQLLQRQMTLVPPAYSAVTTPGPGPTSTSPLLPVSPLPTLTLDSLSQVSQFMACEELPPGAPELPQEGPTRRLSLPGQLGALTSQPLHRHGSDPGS
# T5 sequence (Q12809 whole entry F656A): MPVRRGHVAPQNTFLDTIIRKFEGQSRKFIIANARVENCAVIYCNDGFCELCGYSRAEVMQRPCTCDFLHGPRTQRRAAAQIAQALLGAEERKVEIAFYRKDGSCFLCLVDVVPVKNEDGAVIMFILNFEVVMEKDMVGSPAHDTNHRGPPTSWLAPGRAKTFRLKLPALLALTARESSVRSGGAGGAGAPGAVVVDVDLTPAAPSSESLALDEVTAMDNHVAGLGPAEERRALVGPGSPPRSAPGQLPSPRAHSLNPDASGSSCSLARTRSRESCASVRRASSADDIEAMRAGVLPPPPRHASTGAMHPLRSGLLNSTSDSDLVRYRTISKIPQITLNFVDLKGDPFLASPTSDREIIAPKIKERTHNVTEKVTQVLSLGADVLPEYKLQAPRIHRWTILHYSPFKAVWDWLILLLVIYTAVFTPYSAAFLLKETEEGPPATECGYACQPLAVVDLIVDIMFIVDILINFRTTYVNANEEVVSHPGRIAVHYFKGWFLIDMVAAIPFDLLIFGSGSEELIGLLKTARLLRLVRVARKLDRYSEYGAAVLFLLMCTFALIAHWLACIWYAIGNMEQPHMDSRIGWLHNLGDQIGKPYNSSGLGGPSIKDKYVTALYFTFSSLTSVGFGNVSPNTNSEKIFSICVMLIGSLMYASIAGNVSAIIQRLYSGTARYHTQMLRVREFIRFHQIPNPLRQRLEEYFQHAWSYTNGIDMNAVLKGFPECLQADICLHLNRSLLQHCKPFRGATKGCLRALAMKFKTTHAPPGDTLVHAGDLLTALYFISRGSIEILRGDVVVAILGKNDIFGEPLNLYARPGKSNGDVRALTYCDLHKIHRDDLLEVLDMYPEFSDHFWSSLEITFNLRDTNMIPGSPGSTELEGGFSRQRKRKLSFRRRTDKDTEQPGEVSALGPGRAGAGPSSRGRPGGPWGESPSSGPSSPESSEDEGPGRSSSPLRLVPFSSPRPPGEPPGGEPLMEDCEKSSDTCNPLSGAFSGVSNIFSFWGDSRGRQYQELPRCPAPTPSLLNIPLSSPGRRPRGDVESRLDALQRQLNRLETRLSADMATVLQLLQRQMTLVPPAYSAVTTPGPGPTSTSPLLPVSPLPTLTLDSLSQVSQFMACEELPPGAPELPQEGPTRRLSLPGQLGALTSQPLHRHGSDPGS
# T8 sequence (Q12809 whole entry Y652A): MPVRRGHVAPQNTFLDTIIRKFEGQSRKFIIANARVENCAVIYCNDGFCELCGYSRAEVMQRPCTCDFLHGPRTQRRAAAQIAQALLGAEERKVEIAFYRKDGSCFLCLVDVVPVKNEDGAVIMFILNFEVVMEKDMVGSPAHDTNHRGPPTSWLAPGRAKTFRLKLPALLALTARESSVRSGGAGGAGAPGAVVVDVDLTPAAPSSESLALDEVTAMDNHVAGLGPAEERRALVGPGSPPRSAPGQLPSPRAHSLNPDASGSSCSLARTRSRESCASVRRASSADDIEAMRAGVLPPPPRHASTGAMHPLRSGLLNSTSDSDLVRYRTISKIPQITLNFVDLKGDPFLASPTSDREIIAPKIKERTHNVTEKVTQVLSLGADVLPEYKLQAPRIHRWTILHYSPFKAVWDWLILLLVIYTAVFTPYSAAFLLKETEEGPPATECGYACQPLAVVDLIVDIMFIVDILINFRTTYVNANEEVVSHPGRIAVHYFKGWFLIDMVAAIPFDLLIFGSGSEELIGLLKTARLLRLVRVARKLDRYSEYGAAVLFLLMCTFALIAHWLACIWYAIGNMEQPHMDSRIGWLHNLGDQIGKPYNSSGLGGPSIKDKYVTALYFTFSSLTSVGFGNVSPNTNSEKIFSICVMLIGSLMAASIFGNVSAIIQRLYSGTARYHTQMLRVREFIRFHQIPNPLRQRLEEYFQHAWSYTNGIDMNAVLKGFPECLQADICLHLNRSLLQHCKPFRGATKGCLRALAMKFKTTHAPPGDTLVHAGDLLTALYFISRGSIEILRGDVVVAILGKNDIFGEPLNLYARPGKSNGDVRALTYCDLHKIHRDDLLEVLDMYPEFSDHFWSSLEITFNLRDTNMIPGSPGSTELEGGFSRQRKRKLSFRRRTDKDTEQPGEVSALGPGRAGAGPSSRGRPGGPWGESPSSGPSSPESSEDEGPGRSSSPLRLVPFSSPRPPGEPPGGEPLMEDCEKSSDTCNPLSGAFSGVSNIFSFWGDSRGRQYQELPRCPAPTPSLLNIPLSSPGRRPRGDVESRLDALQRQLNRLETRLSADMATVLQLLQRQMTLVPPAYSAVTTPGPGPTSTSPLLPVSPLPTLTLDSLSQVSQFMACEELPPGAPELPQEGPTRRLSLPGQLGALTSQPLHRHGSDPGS
# T3 sequence (Q12809 whole entry T623A): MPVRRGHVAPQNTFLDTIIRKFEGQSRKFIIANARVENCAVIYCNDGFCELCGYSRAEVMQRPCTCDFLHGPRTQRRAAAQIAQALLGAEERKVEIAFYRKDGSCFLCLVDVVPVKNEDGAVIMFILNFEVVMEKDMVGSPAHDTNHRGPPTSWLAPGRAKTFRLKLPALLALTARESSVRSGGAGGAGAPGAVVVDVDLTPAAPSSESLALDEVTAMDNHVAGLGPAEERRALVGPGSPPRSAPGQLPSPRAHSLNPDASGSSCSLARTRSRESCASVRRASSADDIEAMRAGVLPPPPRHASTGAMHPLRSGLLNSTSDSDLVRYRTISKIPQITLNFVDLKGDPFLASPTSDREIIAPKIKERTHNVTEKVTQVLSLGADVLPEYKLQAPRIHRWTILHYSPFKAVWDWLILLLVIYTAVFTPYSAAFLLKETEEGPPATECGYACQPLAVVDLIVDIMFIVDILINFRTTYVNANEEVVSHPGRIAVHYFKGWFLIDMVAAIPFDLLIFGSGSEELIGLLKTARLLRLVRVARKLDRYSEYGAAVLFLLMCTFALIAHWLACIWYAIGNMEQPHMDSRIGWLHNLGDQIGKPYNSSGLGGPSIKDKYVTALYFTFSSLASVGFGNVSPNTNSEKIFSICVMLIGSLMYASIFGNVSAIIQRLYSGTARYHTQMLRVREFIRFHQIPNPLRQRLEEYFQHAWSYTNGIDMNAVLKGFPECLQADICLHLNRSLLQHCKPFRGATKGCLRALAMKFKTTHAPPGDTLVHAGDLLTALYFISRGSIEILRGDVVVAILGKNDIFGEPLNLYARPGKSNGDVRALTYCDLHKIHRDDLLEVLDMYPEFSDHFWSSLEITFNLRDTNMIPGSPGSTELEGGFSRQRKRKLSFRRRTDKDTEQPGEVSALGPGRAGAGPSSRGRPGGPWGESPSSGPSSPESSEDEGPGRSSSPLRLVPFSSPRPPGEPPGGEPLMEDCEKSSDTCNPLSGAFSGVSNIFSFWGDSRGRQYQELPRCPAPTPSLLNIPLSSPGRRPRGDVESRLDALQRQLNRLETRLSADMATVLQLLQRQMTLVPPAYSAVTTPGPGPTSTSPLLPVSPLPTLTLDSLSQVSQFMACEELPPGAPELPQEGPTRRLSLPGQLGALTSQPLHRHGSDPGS
smiles,measurement,setting,value
c1ccc(CCCNCCC(c2ccccc2)c2ccccc2)cc1 [Cavalli-2],Potency reduction compared with its WT-control (fold WT IC50),S620T hERG; S620T vs WT-1,54 fold and 53.8 fold
same,IC50 at 5 min,"S620T hERG; human, HEK293 cells expressing S620T hERG, pH 7.4, S620T, −40 mV, 4 mM K+",1.92 µM
same,k (slope) of IhERG activation in the presence of compound,WT hERG [1]; 30 nM,5.0 ± 1.5 and 5.03 ± 1.50 and 4.8 ± 1.1
same,k of IhERG inactivation in the presence of compound,WT hERG [1]; 30 nM,19.9 ± 1.1 and 20.1 ± 1.3
same,ΔV0.5 of activation,WT hERG [1]; 30 nM vs control,-4.68 mV
same,inactivation τ in the presence of compound,"WT hERG [1]; 30 nM, +40 mV after 2-ms step to −120 mV, control 1.4 ± 0.2 ms",1.6 ± 0.5 ms
same,voltage dependence of fractional inhibition of WT IhERG,"WT hERG [1]; 30 nM, test depolarizations −30 to +60 mV",voltage-dependent over the tested range
same,fractional inhibition of IhERG during +40-mV phase vs 0-mV phases,"WT hERG [1]; 30 nM, three-step protocol 0/+40/0 mV",significantly reduced
same,δ value (Woodhull analysis),WT hERG [1]; KD at +60 mV vs 0 mV,0.2
same,IC50 at 5 min,"WT hERG [1]; human, HEK293 cells stably expressing WT hERG, pH 7.4, WT-2, inward IhERG tails, voltage step −120 mV, 94 mM K+",0.0175 µM
same,recovery at 30 nM,"WT hERG [1]; human, HEK293 cells stably expressing WT hERG, pH 7.4, washout after 30 nM, five cells, read-out: recovery on washout, of control amplitude",59.5 ± 4.1%
same,IC50,hERG,0.017 µM
same,Potency reduction compared with its WT-control (fold WT IC50),T623A hERG; T623A vs WT-2,16 fold and 16.1 fold
same,IC50 at 5 min,"T623A hERG; human, HEK293 cells expressing T623A hERG, pH 7.4, T623A, −120 mV, 94 mM K+",0.281 µM
same,voltage dependence of F557L IhERG tail inhibition,"F557L hERG; 300 nM, −20 to +40 mV",eliminated voltage dependence of inhibition; also recorded: no significant voltage dependence; also recorded: nearly abolished
same,Potency reduction compared with its WT-control (fold WT IC50),F557L hERG; F557L vs WT-1,10 fold and 9.5 fold
same,IC50 at 5 min,"F557L hERG; human, HEK293 cells expressing F557L hERG, pH 7.4, F557L, −40 mV, 4 mM K+",0.339 µM
same,reduction of F656A IhERG,"F656A hERG; 1 μM, −120 mV, high K+",~40%
same,Potency reduction compared with its WT-control (fold WT IC50),F656A hERG; F656A vs WT-2,75 fold and 75.1 fold
same,IC50 at 5 min,"F656A hERG; human, HEK293 cells expressing F656A hERG, pH 7.4, F656A, −120 mV, 94 mM K+",1.31 µM
same,IhERG tail inhibition,"WT hERG [2]; 30 nM, standard protocol, tails at −40 mV, 4 mM K+",50.2 ± 2.0%
same,change in t½ of IhERG deactivation,"WT hERG [2]; 30 nM, tails at −40 mV",No significant change
same,IC50,"WT hERG [2]; WT-1, IhERG tails, voltage step −40 mV, 4 mM K+, HEK293, 37 °C",0.0356 µM
same,"inhibition at 5 min, 0.03 µM","WT hERG [2]; human, HEK293 cells stably expressing WT hERG, pH 7.4, 30 nM, AP voltage clamp, read-out: inhibition of peak IhERG during ventricular action potential waveform",42.3 ± 6.7%
same,"inhibition at 5 min, 30 nM","WT hERG [2]; human, HEK293 cells stably expressing WT hERG, pH 7.4, 30 nM, standard protocol, tails at −40 mV, 4 mM K+, read-out: IhERG tail inhibition",~50%
same,IC50 at 5 min,"WT hERG [2]; human, HEK293 cells stably expressing WT hERG, pH 7.4, WT-1, IhERG tails, voltage step −40 mV, 4 mM K+, HEK293, 37 °C",0.036 µM
same,Potency reduction compared with its WT-control (fold WT IC50),S624A hERG; S624A vs WT-1,7 fold and 7.4 fold
same,IC50 at 5 min,"S624A hERG; human, HEK293 cells expressing S624A hERG, pH 7.4, S624A, −40 mV, 4 mM K+",0.262 µM
same,Potency reduction compared with its WT-control (fold WT IC50),N588K hERG; N588K vs WT-1,15 fold and 15.3 fold
same,"inhibition at 5 min, 0.3 µM","N588K hERG; human, HEK293 cells expressing N588K hERG, pH 7.4, 300 nM",< 50%
same,IC50 at 5 min,"N588K hERG; human, HEK293 cells expressing N588K hERG, pH 7.4, N588K, −40 mV, 4 mM K+",0.544 µM
same,voltage dependence of Y652A IhERG tail inhibition,"Y652A hERG; 300 nM, −20 to +40 mV",eliminated voltage dependence of inhibition; also recorded: no significant voltage dependence
same,Potency reduction compared with its WT-control (fold WT IC50),Y652A hERG; Y652A vs WT-1,17 fold and 16.7 fold
same,IC50 at 5 min,"Y652A hERG; human, HEK293 cells stably expressing Y652A hERG, pH 7.4, Y652A, −40 mV, 4 mM K+",0.594 µM
